Patent publication US4711902A, “Medicament formulation” (Bayer Aktiengesellschaft, priority 1983, dated 1987)
Read-outs that look alike come from different tables or passages of the source.

Legend:
[1] = lipid content 20% by weight, room temperature
Text: Ester mixture A: a glycerol triesters of caprylic acid (70%) and capric acid (30%)
Ester mixture D: 50% soy bean oil and 50% glycerol triesters of caprylic acid (70%) and capric acid (30%)

[2] = lipid content 20%, room temperature
[3] = Ester mixture A (glycerol triesters of caprylic acid 70% and capric acid 30%)
[4] = Ester mixture B (propylene glycol diesters of caprylic acid 75% and capric acid 25%)
[5] = Ester mixture C (75% glycerol triesters, 12.5% diesters, 12.5% monoesters of caprylic/capric acid)
[6] = Ester mixture D (50% soy bean oil and 50% glycerol triesters of caprylic acid 70% and capric acid 30%)

Row | SMILES | Solubility of the medicament in the emulsion [1, 3] | Solubility of the medicament in the emulsion [1, 4] | Solubility of the medicament in the emulsion [1, 5] | Solubility of the medicament in the emulsion [1, 6] | Solubility of the medicament in the emulsion ([1]; Soy bean oil) | Solubility of nimodipine in soy bean oil emulsion ([2]; benzyl alcohol 0% W/W) | Solubility of nimodipine in soy bean oil emulsion ([2]; benzyl alcohol 2% W/W) | Solubility of nimodipine in soy bean oil emulsion ([2]; benzyl alcohol 4% W/W) | Solubility of nimodipine in soy bean oil emulsion ([2]; benzyl alcohol 5% W/W)
1 | CC(c1ccc(Cl)c(Cl)c1)N1N=C(N)CC1=O (stereo not shown) [Muzolimine] | 0.06 % (W/W) | 0.06 % (W/W) | 0.32 % (W/W) | 0.02 % (W/W) | 0.01 % (W/W) | – | – | – | –
2 | COCCOC(=O)C1=C(C)NC(C)=C(C(=O)OC(C)C)C1c1cccc([N+](=O)[O-])c1 (stereo not shown) [Nimodipine] | 0.16 % (W/W) | 0.26 % (W/W) | 0.50 % (W/W) | 0.08 % (W/W) | 0.04 % (W/W) | 0.04% | 0.08% | 0.16% | 0.18%
3 | COC(=O)C1=C(C)NC(C)=C(C(=O)OCC(C)C)C1c1ccccc1[N+](=O)[O-] (stereo not shown) [Nisoldipine] | 0.14 % (W/W) | 0.18 % (W/W) | 0.20 % (W/W) | 0.08 % (W/W) | 0.04 % (W/W) | – | – | – | –
4 | CCOC(=O)C1=C(C)NC(C)=C(C(=O)OC)C1c1cccc([N+](=O)[O-])c1 (stereo not shown) [Nitrendipine] | 0.08 % (W/W) | 0.12 % (W/W) | 0.14 % (W/W) | 0.05 % (W/W) | 0.03 % (W/W) | – | – | – | –
5 | CCCOC(=O)Cc1ccc(OCC(=O)N(CC)CC)c(OC)c1 [Propanidide] | – | – | – | – | 2.80 % (W/W) | – | – | – | –
